Assay results from patent US20020025303A1, “COSMETIC AND/OR DERMATOLOGICAL COMPOSITION CONTAINING A DERIVATIVE OF METHYLATED SILANOL AND A DERIVATIVE OF HYDROLYSED PLANT PROTEIN” (priority 1997, published 2002).

System: normal human fibroblasts (NHDF 784)
Assay: Synthesis of collagen by human fibroblast cultures (radiolabelled proline incorporation)
Assay type: cell-based
Settings: 72 h incubation, 1/40 dilutions of stock preparations, vitamin C 20 μg/ml, FIG. 4
Method: The effect of a composition of the present invention (comprising two anti-glycosylation agents with magnesium ascorbyl phosphate) on the stimulation of the synthesis of collagen and the limitation of the formation of irreversible cross linkages between the collagen fibrils, were evaluated in vitro on human fibroblast cells. […] Glucose was tested in a final concentration of 0.1 percent, which is equivalent to doubling the quantity of 'cold' glucose of the medium. […] They contained free radioactivity and radioactivity incorporated in the soluble cellular and extracellular proteins. […] The proteins of the soluble fraction were then precipitated by 0.3 volume of 10 percent w/v trichloroacetic acid (TCA), and then washed twice with 3 percent TCA (removal of free radioactivity). […] Aliquots were taken to count the incorporated radioactivity in the proteins and a final precipitation was carried out with TCA to separate the material digested by collagenase (collagenic origin) from the collagenase-insensitive material. The incorporated radioactivity was counted by liquid scintillation after cumulation of the soluble/insoluble protein fractions, in an LKB 1211 Rackbeta counter.

Row | SMILES | synthesis of collagen (quantity of radiolabelled proline in the neosynthesized collagen)
1 | O=C1O[C@H]([C@@H](O)CO)C([O-])=C1OP(=O)([O-])[O-].O=C1O[C@H]([C@@H](O)CO)C([O-])=C1OP(=O)([O-])[O-].[Mg+2].[Mg+2].[Mg+2] [magnesium ascorbyl phosphate] | significantly increased
2 | O=C1O[C@H]([C@@H](O)CO)C(O)=C1O [vitamin C] | significantly increased
